{
  "source": "patent US9278997B2",
  "about": "“Processes for the manufacture of macrocyclic depsipeptides and new intermediates” (NOVARTIS AG, priority 2011, dated 2016)",
  "origin": "cited, not measured here",
  "target": "chymotrypsin (Bos taurus, UniProt P00766)",
  "details": "from J. Nat. Prod. 68(9), 1324-7 (2005); read-out: IC50 value for inhibition of chymotrypsin",
  "data": [
    {"substance": "(S)-2-acetamido-N^1-((1S,2S,5S,8S,11R,12S,15S,18S,21R)-2-benzyl-21-hydroxy-5-(4-hydroxybenzyl)-15-isobutyl-8-isopropyl-4,11-dimethyl-3,6,9,13,16,22-hexaoxo-10-oxa-1,4,7,14,17-pentaazabicyclo[16.3.1]docosan-12-yl)pentanediamide [Nostopeptin BN920]", "values": [
      {"measurement": "IC50", "result": 31, "unit": "nM"}
    ]}
  ]
}
